Activity calls are given as the source filed them.
Assays:
[1] = molecular target: Voltage-gated inwardly rectifying potassium channel KCNH2 (Homo sapiens, UniProt Q12809); details: Potency;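 note: confirmatory quantitative high-throughput screen measuring inhibition of hERG channel activity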
[2] = tested on: HeLa; assay: HeLa cell cytotoxicity, dose response, cytotoxicity control for MITF activator project, CellTiter-Glo luminescence, cherry-pick samples (AID 540259); assay type: functional, cell-based; details: Homo sapiens
[3] = molecular target: T1, Aryl hydrocarbon receptor (Homo sapiens, UniProt P35869); details: Potency;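 note: confirmatory quantitative high-throughput screen measuring activation of the AhR signaling pathway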
T1 sequence (P35869 whole entry): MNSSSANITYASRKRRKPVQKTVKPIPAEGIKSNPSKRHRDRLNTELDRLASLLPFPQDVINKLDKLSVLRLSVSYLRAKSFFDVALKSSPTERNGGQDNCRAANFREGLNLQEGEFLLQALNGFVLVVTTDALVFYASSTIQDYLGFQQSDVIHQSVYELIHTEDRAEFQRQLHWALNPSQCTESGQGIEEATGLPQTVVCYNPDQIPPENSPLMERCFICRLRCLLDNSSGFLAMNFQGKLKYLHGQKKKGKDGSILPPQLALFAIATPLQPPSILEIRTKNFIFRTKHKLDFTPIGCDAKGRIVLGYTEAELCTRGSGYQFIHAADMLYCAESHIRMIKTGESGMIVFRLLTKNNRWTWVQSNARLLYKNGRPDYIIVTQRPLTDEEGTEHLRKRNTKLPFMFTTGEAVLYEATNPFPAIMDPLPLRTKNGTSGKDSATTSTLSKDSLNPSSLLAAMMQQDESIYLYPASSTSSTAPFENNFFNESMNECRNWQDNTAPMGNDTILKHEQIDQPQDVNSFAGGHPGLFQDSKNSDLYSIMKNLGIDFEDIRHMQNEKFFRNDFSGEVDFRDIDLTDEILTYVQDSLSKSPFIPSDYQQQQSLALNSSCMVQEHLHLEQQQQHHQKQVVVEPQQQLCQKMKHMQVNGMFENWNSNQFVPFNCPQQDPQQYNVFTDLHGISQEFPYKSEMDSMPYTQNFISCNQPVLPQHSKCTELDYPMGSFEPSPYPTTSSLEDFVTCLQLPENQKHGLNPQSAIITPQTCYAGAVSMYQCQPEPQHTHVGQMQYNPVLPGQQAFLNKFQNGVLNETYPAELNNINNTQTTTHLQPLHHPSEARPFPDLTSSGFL

[4] = molecular target: Phospholipase D2 (Homo sapiens, UniProt O14939); assay: PLD2 inhibitor potency in cells, dose response (AID 602147); assay type: functional;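 note: cellular assay in HEK293 cells overexpressing GFP-tagged PLD2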
[5] = molecular target: Phospholipase D1 (Homo sapiens, UniProt Q13393); assay: PLD1 inhibitor potency in cells, dose response (AID 602151); assay type: functional;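 note: cellular PLD1 assay in Calu-1 cells stimulated with PMA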
[6] = molecular target: Beta Lactamase (Pseudomonas aeruginosa, UniProt Q932Y6); assay: beta-lactamase reporter inhibitor potency, dose response, artefact control for TLR9-MyD88 binding inhibitor project, BLA reporter cells, FRET fluorescence (AID 588341); assay type: cell-based;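 note: cell based assay in CHO-K1 cells stably expressing beta-lactamase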
[7] = tested on: CHO; assay: cytotoxicity in TLR9-MyD88 CHO cells, dose response, cytotoxicity control for TLR9-MyD88 binding inhibitor project, cell-based, luminescence (AID 588339); assay type: functional, hamster; details: Cricetulus griseus;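 note: CHO cells stably coexpressing TLR9 and MyD88 fusions from primary screen; compound exposure lasted 48 hours before viability readout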
[8] = molecular target: Induced myeloid leukemia cell differentiation protein Mcl-1 (Homo sapiens, UniProt Q07820); assay type: functional
[9] = molecular target: Heat shock protein HSP 90-alpha (Homo sapiens, UniProt P07900); assay type: functional, organism-based
[10] = molecular target: Beta-galactosidase (Escherichia coli, UniProt Q8VNN2); assay: PubChem AID 485352; assay type: functional
[11] = inhibitors of SNCA 5'UTR-driven reporter translation, confirmation, H4 neuroglioma cells, luminescence (AID 1988); assay type: functional, cell-based
[12] = molecular target: T2, Type-1 angiotensin II receptor (Homo sapiens, UniProt P30556); assay: AT1 receptor antagonists, dose response, selectivity assay for APJ receptor antagonist project, cell-based, uHTS hits (AID 463214); assay type: functional;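 note: antagonist potency against angiotensin II stimulated AT1 response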
T2 sequence (P30556 whole entry): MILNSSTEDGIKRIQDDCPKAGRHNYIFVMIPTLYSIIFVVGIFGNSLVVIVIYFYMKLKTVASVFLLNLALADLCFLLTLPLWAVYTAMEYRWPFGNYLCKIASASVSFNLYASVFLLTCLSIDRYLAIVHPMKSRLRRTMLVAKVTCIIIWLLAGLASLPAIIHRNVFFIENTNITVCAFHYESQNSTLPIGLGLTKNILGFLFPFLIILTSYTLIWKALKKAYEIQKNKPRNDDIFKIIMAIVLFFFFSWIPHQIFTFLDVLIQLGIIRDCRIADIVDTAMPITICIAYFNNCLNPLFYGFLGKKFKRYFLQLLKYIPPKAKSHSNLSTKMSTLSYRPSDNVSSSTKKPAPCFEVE

[13] = tested on: Streptococcus sp. 'group A'; assay: growth inhibition of control SK(-) GAS strain, dose response, counter-screen for streptokinase expression inhibitor project, luminescence, kanamycin, BacTiterGlo, confirmation (AID 1900); assay type: functional, organism-based
[14] = Luminescence Cell-Based Dose Response HTS to Identify Inhibitors of 5'UTR Stem-Loop Driven Prion Protein mRNA Translation in H4 Neuroglioblastoma Cells. [Related pubchem assays: 1827 (Project Summary), 1813 (Primary HTS)]; assay type: functional
[15] = inhibitors of firefly luciferase expression or activity, dose response, H4 neuroglioma cells, luminescence (AID 1990); assay type: functional, cell-based
[16] = tested on: Streptococcus; assay: Group A Streptococcus viability loss, dose response, counter-screen for streptokinase expression inhibitor project, luminescence, BacTiterGlo (AID 1915); assay type: functional, organism-based;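 note: potency for reduction of bacterial viability or growth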
[17] = tested on: INS1; assay: beta cell apoptosis inhibitors, cytokine rescue, dose response, luminescence, retest (AID 449756); assay type: functional, cell-based; details: Rattus norvegicus;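 note: cell death triggered by IL-1 beta plus TNF-alpha plus IFN-gamma mixture; protective hits raise ATP signal compared with cytokine alone wells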
[18] = microbe, parasite or virus in culture; assay type: functional; details: Mycobacterium tuberculosis
[19] = tested on: HEK293; assay: inhibitors of LMP1-driven NF-kB reporter, dose response, cell-based, HEK293, luciferase, cherry-pick (AID 588343); assay type: functional; details: Homo sapiens
[20] = molecular target: Luciferin 4-monooxygenase (Photinus pyralis, UniProt P08659); assay: firefly luciferase enzyme inhibitors, dose response, biochemical, luminescence (AID 1891)
[21] = molecular target: Latent membrane protein 1 (Human herpesvirus 4 (strain B95-8), UniProt P03230); assay: TES1-eGFP NF-kB reporter inhibition versus Tet-On dsRED, dose response, selectivity assay for LMP1 NF-kB inhibitor project, imaging, HEK293T, dual-color eGFP/dsRED, cherry-picks (AID 588398); assay type: functional, cell-based
[22] = Luminescence Cell-Based Dose Confirmation HTS to Identify Inhibitors of Platelet Dense Granule Release. [Related pubchem assays: 1663 (Primary HTS), 1678 (Summary of Project)]; assay type: functional
[23] = HeLa cell cytotoxicity, dose response, cytotoxicity control for MgcRacGAP inhibitor project (AID 624300); assay type: functional
[24] = Fluorescence-based cell-based high throughput dose response assay for inhibitors of the interaction of nucleotide-binding oligomerization domain containing 2 (NOD2) and the receptor-interacting serine-threonine kinase 2 (RIPK2).; assay type: functional; details: Homo sapiens
[25] = cytotoxicity in KRAS-transformed pancreatic duct cells, primary screen, cell-based, fluorescence, HTS (AID 431); assay type: functional; details: Homo sapiens;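 note: cell line used: HPDE-C7K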
[26] = cytotoxicity in HPDE-C7 cells, cell-based, fluorescence, HTS (AID 430); assay type: functional; details: Homo sapiens
[27] = tested on: Escherichia coli; assay: microbe, parasite or virus in culture
[28] = molecular target: Nonstructural protein 1 (Influenza A virus, UniProt Q194T2); assay type: functional, Influenza A virus (A/California/07/2009(H1N1))
[29] = cytotoxicity in MIN6 insulinoma cells, dose response, cytotoxicity control, cell-based, mouse insulinoma (AID 2122); assay type: functional;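 note: confirmatory high-throughput counterscreen run to flag cytotoxic compounds; mouse MIN-6 beta cells carrying an insulin promoter eGFP reporter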
[30] = molecular target: T3, Polyadenylate-binding protein 1 (Homo sapiens, UniProt P11940); assay: PABP1 MLLE–PAM2 interaction inhibitors, dose response, miRNA deadenylation inhibitor project, biochemical, fluorescence polarization, Cy5-PAM2 peptide, secondary (AID 602260); assay type: functional; details: read-out: IC50_Mean
[31] = molecular target: T3, Polyadenylate-binding protein 1; assay: PABP1 MLLE–PAM2 binding inhibitor potency, dose response, biochemical, fluorescence polarization, FITC-PAM2 peptide (AID 602259); assay type: functional; details: read-out: IC50_Mean
[32] = insulin promoter down-regulators in MIN6 cells, imaging, high-content screening, mouse beta cells (AID 1628); assay type: functional
[33] = tested on: Vero; assay: Vero cell cytotoxicity, cytotoxicity control for flavivirus capping enzyme inhibitors (AID 588742); assay type: functional; details: Chlorocebus sabaeus
[34] = molecular target: ATP-dependent molecular chaperone HSP82 (Candida albicans (strain WO-1) (Yeast), UniProt C4YTQ8); assay: loss of DOC-induced GRE-beta-galactosidase reporter signal, dose response, Hsp90 inhibitor project, S. cerevisiae, luminescence (AID 2400); assay type: functional, cell-based;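 note: beta-galactosidase luminescence from glucocorticoid response element reporter as proxy for Hsp90 function; inhibitor potency where signal loss means Hsp90 inhibition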
[35] = NIH-3T3 fibroblast cytotoxicity, dose response, cytotoxicity control, cell-based, fluorescence, Alamar Blue, secondary assay (AID 2327); assay type: functional;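 note: NIH-3T3 mouse fibroblasts cultured with fluconazole at 8 µg/mL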
[36] = molecular target: T4, Serine/threonine-protein phosphatase (Candida dubliniensis (strain CD36 / CBS 7987 / NCPF 3949 / NRRLY-17841) (Yeast), UniProt B9W6M3); assay: calcineurin pathway inhibitors in yeast reporter, dose response, S. cerevisiae, CDRE-lacZ, luminescence, secondary (AID 2388); assay type: functional, cell-based;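 note: yeast reporter cells carrying a calcineurin-responsive lacZ construct stimulated with calcium chloride; luminescent beta-galactosidase reporter signal in whole cells rather than isolated phosphatase activity; potency for inhibition where a drop in reporter signal means calcineurin blockade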
T4 sequence (B9W6M3 whole entry): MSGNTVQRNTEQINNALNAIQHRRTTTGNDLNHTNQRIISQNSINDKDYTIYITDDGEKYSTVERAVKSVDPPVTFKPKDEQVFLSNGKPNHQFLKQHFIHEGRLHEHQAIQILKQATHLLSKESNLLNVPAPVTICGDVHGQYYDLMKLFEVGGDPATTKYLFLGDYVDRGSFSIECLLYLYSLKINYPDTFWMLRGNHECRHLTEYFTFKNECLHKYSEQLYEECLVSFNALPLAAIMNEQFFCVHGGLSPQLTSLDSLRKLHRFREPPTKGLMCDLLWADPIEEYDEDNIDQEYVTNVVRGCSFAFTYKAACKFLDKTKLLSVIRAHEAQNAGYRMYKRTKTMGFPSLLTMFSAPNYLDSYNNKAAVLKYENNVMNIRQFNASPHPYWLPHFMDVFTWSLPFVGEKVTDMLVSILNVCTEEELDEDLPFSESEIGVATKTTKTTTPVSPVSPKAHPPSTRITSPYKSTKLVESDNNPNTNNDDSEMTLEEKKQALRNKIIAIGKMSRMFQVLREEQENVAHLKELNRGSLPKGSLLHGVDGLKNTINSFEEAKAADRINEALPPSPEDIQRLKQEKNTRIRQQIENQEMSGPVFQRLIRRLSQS

[37] = C. albicans growth with fluconazole, confirmation, fluorescence, retest (AID 2467); assay type: functional, cell-based
[38] = tested on: Vero; assay: cells; assay type: functional; details: Chlorocebus sabaeus

Phospholipase D1, sequence (Q13393 whole entry): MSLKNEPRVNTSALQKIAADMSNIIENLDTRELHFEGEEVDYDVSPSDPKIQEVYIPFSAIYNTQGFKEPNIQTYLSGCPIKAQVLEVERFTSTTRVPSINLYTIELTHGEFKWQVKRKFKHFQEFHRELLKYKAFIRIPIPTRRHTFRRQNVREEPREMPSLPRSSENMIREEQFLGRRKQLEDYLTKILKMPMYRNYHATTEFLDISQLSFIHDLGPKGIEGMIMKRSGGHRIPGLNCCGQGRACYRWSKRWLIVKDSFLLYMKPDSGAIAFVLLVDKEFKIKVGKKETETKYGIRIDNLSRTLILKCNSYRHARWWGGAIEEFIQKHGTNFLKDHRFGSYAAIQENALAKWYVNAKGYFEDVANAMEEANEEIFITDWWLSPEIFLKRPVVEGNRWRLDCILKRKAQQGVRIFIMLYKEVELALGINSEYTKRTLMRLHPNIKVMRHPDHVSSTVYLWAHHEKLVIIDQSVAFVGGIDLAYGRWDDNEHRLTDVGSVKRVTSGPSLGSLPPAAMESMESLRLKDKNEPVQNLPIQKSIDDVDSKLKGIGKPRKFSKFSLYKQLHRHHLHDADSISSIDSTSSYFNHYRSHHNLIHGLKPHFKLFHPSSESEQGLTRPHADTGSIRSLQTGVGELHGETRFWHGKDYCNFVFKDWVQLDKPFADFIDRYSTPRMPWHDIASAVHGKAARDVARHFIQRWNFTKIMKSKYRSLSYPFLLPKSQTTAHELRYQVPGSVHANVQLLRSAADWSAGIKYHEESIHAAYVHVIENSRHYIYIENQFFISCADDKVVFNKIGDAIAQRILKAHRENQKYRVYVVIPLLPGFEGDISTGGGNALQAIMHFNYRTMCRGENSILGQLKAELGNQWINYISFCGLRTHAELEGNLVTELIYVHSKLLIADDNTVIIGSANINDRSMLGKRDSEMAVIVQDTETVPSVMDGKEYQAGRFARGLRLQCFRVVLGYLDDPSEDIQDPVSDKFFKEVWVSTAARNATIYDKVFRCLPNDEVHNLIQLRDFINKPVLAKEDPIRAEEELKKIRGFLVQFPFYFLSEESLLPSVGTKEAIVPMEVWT
Beta-galactosidase, sequence (Q8VNN2 whole entry): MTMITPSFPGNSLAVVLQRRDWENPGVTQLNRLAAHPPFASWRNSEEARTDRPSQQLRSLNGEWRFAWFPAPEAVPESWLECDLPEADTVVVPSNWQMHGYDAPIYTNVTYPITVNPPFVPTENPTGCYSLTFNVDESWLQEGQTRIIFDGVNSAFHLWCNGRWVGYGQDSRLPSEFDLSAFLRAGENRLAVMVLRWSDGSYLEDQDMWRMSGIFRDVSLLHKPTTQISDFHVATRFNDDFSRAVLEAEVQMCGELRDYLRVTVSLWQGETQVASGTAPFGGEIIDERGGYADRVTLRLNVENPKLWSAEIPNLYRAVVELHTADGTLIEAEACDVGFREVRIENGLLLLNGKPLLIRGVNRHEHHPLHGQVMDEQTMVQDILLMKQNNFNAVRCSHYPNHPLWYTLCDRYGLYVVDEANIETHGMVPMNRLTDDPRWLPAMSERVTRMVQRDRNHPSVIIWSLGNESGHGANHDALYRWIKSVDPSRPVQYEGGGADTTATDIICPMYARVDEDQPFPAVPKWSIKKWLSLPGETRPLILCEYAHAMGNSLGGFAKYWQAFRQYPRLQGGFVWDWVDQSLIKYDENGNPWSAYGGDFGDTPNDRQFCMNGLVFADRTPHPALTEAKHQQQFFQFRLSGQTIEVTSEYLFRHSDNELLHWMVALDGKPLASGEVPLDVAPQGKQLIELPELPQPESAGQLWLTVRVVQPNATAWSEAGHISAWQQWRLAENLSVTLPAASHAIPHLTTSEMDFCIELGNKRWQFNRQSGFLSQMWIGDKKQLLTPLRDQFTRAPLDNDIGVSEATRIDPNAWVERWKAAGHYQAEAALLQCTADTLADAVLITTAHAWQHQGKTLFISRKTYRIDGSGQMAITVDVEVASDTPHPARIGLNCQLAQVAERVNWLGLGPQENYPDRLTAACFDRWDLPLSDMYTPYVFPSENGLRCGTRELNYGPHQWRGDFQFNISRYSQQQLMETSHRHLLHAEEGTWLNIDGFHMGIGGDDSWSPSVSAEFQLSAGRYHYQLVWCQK
Phospholipase D2, sequence (O14939 whole entry): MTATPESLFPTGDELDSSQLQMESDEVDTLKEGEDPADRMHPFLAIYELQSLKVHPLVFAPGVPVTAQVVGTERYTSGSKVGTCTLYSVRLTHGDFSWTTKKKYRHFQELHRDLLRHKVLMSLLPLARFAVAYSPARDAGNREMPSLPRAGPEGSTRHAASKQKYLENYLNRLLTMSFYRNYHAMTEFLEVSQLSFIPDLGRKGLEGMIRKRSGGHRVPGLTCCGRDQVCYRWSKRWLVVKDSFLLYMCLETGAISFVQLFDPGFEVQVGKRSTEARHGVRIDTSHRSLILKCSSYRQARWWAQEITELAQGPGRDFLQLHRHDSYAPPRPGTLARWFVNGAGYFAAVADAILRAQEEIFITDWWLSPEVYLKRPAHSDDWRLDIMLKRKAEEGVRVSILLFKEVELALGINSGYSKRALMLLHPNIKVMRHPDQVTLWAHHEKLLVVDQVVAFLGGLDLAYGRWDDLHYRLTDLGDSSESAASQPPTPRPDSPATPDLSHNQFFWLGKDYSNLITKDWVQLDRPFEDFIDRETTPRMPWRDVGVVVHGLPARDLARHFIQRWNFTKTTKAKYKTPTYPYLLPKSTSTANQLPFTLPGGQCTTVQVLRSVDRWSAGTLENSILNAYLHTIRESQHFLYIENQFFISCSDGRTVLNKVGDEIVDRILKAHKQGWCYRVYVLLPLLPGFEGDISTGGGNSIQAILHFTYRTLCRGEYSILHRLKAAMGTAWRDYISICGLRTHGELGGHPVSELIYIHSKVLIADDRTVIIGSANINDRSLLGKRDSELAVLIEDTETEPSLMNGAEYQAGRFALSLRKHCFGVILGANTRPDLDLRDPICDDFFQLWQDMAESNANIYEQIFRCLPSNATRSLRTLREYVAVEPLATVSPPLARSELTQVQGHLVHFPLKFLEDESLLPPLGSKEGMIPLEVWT
T3 sequence (P11940 whole entry): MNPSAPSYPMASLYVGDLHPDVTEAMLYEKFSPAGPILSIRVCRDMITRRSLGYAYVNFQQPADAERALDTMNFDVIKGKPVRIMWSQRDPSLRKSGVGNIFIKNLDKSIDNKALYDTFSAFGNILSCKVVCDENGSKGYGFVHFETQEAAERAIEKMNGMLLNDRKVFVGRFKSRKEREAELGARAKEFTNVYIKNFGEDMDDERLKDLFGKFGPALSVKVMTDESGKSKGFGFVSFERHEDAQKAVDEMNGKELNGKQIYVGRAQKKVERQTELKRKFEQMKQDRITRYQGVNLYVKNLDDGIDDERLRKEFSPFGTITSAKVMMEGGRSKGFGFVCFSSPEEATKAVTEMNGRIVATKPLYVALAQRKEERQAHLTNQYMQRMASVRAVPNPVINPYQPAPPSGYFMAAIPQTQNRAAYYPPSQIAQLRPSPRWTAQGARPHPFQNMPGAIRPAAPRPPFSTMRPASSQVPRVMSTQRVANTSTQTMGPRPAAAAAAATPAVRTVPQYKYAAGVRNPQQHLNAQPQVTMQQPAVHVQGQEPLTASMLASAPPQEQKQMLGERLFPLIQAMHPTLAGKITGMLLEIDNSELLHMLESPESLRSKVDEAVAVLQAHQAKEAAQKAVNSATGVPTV
Luciferin 4-monooxygenase, sequence (P08659 whole entry): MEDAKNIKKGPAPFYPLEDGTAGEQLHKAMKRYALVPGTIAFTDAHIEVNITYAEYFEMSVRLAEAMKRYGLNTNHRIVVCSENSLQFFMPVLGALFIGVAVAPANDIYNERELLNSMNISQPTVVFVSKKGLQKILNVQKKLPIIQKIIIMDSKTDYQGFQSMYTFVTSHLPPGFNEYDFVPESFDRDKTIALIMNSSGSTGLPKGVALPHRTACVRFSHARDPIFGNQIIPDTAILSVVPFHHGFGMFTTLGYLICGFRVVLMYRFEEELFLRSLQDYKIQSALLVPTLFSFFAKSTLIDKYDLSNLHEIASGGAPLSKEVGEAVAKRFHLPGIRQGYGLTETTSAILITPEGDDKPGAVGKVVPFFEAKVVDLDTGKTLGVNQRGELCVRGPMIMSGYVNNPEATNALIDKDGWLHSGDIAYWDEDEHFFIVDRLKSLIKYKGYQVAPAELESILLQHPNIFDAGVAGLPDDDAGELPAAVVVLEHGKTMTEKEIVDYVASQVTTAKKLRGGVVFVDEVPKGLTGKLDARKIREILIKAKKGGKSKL
Beta Lactamase, sequence (Q932Y6 whole entry, the tested form may be a part): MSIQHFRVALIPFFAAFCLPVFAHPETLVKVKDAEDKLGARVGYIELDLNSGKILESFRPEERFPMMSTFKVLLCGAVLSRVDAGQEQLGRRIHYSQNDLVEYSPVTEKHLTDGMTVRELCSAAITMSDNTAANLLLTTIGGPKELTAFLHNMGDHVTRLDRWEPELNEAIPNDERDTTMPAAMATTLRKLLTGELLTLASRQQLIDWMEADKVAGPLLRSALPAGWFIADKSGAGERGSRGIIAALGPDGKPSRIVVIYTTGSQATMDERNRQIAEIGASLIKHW
Nonstructural protein 1, sequence (Q194T2 whole entry): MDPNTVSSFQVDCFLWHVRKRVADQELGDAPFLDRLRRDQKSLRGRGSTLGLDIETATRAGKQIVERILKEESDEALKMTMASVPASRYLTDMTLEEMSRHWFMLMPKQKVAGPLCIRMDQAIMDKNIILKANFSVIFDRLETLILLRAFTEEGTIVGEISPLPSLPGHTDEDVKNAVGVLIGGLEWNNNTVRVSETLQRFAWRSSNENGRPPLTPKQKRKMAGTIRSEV

c1ccc(Nc2ccc(Nc3ccccc3)cc2)cc1
AC50 [1]: 20 µM (inconclusive)
AC50 [2]: 43.6 µM (active)
AC50 [3]: 50.1 µM (inconclusive)

Cc1ccc(C(=O)N[C@@H](C)CN2CCC(n3c(=O)[nH]c4cc(Cl)ccc43)CC2)cc1
IC50 [4]: 1.05 µM (active)
IC50 [5]: 0.011 µM (active)

COc1ccc(C(=O)c2sc3nc(-c4ccc(OC)cc4)ccc3c2N)cc1
IC50 [6]: 4.44 µM (active)
IC50 [7]: 36.8 µM (inactive)
IC50 [8]: 2.99 µM (not active)

CNc1ccc2oc(C[C@H]3O[C@@]4(CC[C@H]3C)O[C@H]([C@H](C)C(=O)c3ccc[nH]3)[C@H](C)C[C@H]4C)nc2c1C(=O)O [CALCIMYCIN]
AC50 [9]: 1.07 µM (active)
EC50 [10]: > 40 µM (inactive)
EC50 [11]: 0.172 µM (active)
IC50 [12]: > 40 µM (not active)
EC50 [13]: < 0.06 µM (active)
EC50 [14]: 0.267 µM (active)
EC50 [15]: 0.293 µM (active)
EC50 [16]: 0.128 µM (active)
AC50 [17]: 2.08 µM (active)
CC50 [18]: 0.319 µM (active)

COc1ccc(C(=O)Nc2ccc3[nH]ccc3c2)cc1
EC50 [11]: 7.91 µM (active)
AC50 [19]: 2.59 µM (active)
EC50 [14]: 13.6 µM (active)
EC50 [20]: 3.28 µM (active)
AC50 [21]: 27.2 µM (active)
EC50 [22]: 5.61 µM (active)

CC1(C)CC(=O)C2=C(C1)OC1=C(C(=O)CC(C)(C)C1)C2c1ccc(O)cc1O
CC50 [23]: 50 µM (active)
EC50 [10]: > 40 µM (inactive)
IC50 [24]: 1.36 µM (active)
IC50 [12]: 9.76 µM (active)
EC50 [25]: 7.07 µM (active)
EC50 [26]: 5.63 µM (active)
AC50 [17]: 6.76 µM (active)

O=S(=O)(c1ccc2nc(O)sc2c1)N1CCCCC1
AC50 [27]: > 150 µM (inactive)

CCCCN1C(=O)/C(=C2\SC(N3CCCCC3)=NC2=O)c2ccccc21
IC50 [28]: 27.4 µM (active)
IC50 [29]: 1.54 µM (active)
IC50 [30]: > 66 µM (inactive)
IC50 [31]: > 66 µM (inactive)
IC50 [32]: 2.13 µM (active)
AC50 [2]: 37.9 µM (active)

O=C(NCCN1CCC2(CC1)C(=O)NCN2c1cccc(F)c1)c1cccc(F)c1
IC50 [4]: 1.49 µM (active)
IC50 [5]: 24 µM (active)

Cc1cccc(/C=C/C(=O)c2cc(Br)ccc(=O)c2O)c1
EC50 [11]: 9.67 µM (active)
EC50 [13]: 1.78 µM (active)
EC50 [14]: > 120 µM (not active)
CC50 [33]: 15.1 µM (active)
EC50 [34]: 6.88 µM (active)
EC50 [35]: 42.4 µM (inconclusive)
EC50 [36]: > 180 µM (inactive)
EC50 [37]: 1.11 µM (active)
EC50 [15]: 11.6 µM (active)
EC50 [16]: 2.77 µM (active)
CC50 [38]: 7.95 µM (active)

From ChEMBL document CHEMBL1201862, “PubChem BioAssay data set” (2004)
